Assay results published in ChEMBL document CHEMBL6087402, “Design, synthesis, and in vitro and in vivo biological evaluation of dihydroartemisinin derivatives as potent anti-cancer agents with ferroptosis-inducing and apoptosis-activating properties” (Eur J Med Chem, 2025).
The source made the active and inactive calls. The rule behind the calls is not given here. Peptide text beside a SMILES is read from it. * marks the point of attachment. Cbz = O=C(OCc1ccccc1)*; CH2F = FC*

Experiments:
HCT-116 [1] = test: Cytotoxicity against human HCT-116 cells assessed as cell viability at 5 uM; type: functional, cell-based
A549 = test: Anti-proliferative activity against human A549 cells incubated for 72 hrs by MTT assay; type: functional, cell-based; settings: A549, 72 h
Bel-7402 = test: Anti-proliferative activity against human Bel-7402 cells incubated for 72 hrs by MTT assay; type: functional, cell-based; settings: Bel-7402, 72 h
HCT-116 [2] = test: Anti-proliferative activity against human HCT-116 cells incubated for 72 hrs by MTT assay; type: functional, cell-based; settings: HCT-116, 72 h
SW-620 = test: Anti-proliferative activity against human SW620 cells incubated for 72 hrs by MTT assay; type: functional, cell-based; settings: SW-620, 72 h
[3] = Selectivity index, ratio of IC50 for human L02 cells to IC50 for human A549 cells; type: toxicity; settings: L02 cells versus A549 cells, read-out: Ratio IC50
[4] = Selectivity index, ratio of IC50 for human L02 cells to IC50 for human Bel-7402 cells; type: toxicity; settings: L02 cells versus Bel-7402 cells, read-out: Ratio IC50
[5] = Selectivity index, ratio of IC50 for human L02 cells to IC50 for human HCT-116 cells; type: toxicity; settings: L02 cells versus HCT-116 cells, read-out: Ratio IC50
[6] = Selectivity index, ratio of IC50 for human L02 cells to IC50 for human SW620 cells; type: toxicity; settings: L02 cells versus SW620 cells, read-out: Ratio IC50
[7] = Anti-proliferative activity against human L02 cells incubated for 72 hrs by MTT assay; type: toxicity, cell-based
HCT-116 [8] = test: Inhibition of cell proliferation in human HCT-116 cells at 3 uM incubated for 12 hrs by EdU assay (reference value: 48.14 %); type: functional
HCT-116 [9] = test: Cytotoxicity against human HCT-116 cells assessed as cell viability at 10 uM; type: functional, cell-based
HCT-116 [10] = test: Cytotoxicity against human HCT-116 cells assessed as cell viability upto 20 uM; type: functional, cell-based

| SMILES | Activity (HCT-116 [1]) | IC50 (A549) [µM] | IC50 (Bel-7402) [µM] | IC50 (HCT-116 [2]) [µM] | IC50 (SW-620) [µM] | selectivity ratio [3] | selectivity ratio [4] | selectivity ratio [5] | selectivity ratio [6] | IC50 at 72 h [7] [µM] | inhibition at 3 µM (HCT-116 [8]) [%] | Activity (HCT-116 [9]) | Activity (HCT-116 [10]) |
| --- | --- | --- | --- | --- | --- | --- | --- | --- | --- | --- | --- | --- | --- |
| CC(=O)N(O)CCCCCNC(=O)CCC(=O)N(O)CCCCCNC(=O)CCC(=O)N(O)CCCCCN | inactive | – | – | – | – | – | – | – | – | – | – | – | – |
| C[C@@H]1CC[C@H]2[C@@H](C)C(OC(=O)Nc3ccccc3)O[C@@H]3O[C@@]4(C)CC[C@H]1[C@]32OO4 (some centres undefined) | – | 4.18 | 4.62 | 0.72 | 1.34 | 3.2 | 2.9 | 18.6 | 9.99 | 13.4 | – | – | – |
| C[C@H]1[C@@H](O)O[C@@H]2O[C@@]3(C)CC[C@H]4[C@H](C)CC[C@@H]1[C@@]24OO3 [ARTENIMOL] | – | 19.4 | 43.2 | 5.1 | 6.61 | 0.43 | 0.2 | 1.65 | 1.28 | 8.43 | 24.5 | – | – |
| Cc1ccc(NC(=O)OC2O[C@@H]3O[C@@]4(C)CC[C@@H]5[C@H](C)CC[C@@H]([C@H]2C)[C@@]35OO4)cc1 (some centres undefined) | – | 2 | 8.1 | 0.59 | 0.79 | 7.82 | 1.93 | 26.5 | 19.8 | 15.6 | – | – | – |
| CCOC(=O)c1ccc(NC2CCCCC2)c(N)c1 | – | – | – | – | – | – | – | – | – | – | – | inactive | – |
| CC(C)[C@H](NC(=O)OCc1ccccc1)C(=O)N[C@@H](C)C(=O)N[C@@H](CC(=O)O)C(=O)CF (Cbz-Val-Ala-Asp-CH2F) | – | – | – | – | – | – | – | – | – | – | – | – | inactive |
| C[C@@H]1CC[C@H]2[C@@H](C)C(OC(=O)Nc3ccc(F)cc3)O[C@@H]3O[C@@]4(C)CC[C@H]1[C@]32OO4 (some centres undefined) | – | 3.2 | 8.7 | 0.51 | 1.01 | 2.85 | 1.05 | 17.9 | 9.04 | 9.13 | – | – | – |
| COc1ccc(NC(=O)OC2O[C@@H]3O[C@@]4(C)CC[C@@H]5[C@H](C)CC[C@@H]([C@H]2C)[C@@]35OO4)cc1 (some centres undefined) | – | 5.8 | 8.3 | 0.92 | 1.06 | 6.38 | 4.46 | 40.2 | 34.9 | 37 | – | – | – |
